From patent publication US12624044B2, “SMARCA degraders and uses thereof” (Kymera Therapeutics, Inc., priority 2019, dated 2026)

Columns and labels:
[1] = target: SMARCA2 (Homo sapiens, UniProt P51531); test: MSD SMARCA2 degradation in A549 cell line; type: cell-based; conditions: 24 h; for Dmax: A549, A549 cells; for DC50: A549 cells, read-out: SMARCA2 MSD A549 degradation 24 h: Average external-Abs DC50
Summary of the method: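 SMARCA2 remaining was measured by MSD electrochemiluminescence on RIPA lysates (anti-SMARCA2 plus SULFO-TAG anti-rabbit). Prior exposure: 24 h of A549 cells to a 10-point, 3-fold dilution series topping at 1000 nM final; Dmax % given as graded codes.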

[2] = target: T1, SMARCA4 (Homo sapiens, UniProt P51532); test: SMARCA4 Western blot MV4-11 degradation; type: cell-based; conditions: 24 h; for Dmax: MV4-11, MV4-11 cells, read-out: SMARCA4 WB MV411 degradation 24 h: Average Dmax %; for DC50: MV4-11 cells, read-out: SMARCA4 WB MV411 degradation 24 h: Average external-Abs DC50
T1 construct: SMARCA2 and SMARCA4 protein degradation in MV4-11 cells; endogenous in cells; host or cells: MV4-11
Summary of the method: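 MV4-11 cells treated with compound for 24 h, lysed in RIPA with protease/phosphatase inhibitors, and SMARCA2 and SMARCA4 (BRG1) levels assessed by Western blot with β-actin loading control and LI-COR fluorescent read-out. Maximal degradation (Dmax %) after 24 h binned into letter codes.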

Sequence of SMARCA2 (P51531 whole entry): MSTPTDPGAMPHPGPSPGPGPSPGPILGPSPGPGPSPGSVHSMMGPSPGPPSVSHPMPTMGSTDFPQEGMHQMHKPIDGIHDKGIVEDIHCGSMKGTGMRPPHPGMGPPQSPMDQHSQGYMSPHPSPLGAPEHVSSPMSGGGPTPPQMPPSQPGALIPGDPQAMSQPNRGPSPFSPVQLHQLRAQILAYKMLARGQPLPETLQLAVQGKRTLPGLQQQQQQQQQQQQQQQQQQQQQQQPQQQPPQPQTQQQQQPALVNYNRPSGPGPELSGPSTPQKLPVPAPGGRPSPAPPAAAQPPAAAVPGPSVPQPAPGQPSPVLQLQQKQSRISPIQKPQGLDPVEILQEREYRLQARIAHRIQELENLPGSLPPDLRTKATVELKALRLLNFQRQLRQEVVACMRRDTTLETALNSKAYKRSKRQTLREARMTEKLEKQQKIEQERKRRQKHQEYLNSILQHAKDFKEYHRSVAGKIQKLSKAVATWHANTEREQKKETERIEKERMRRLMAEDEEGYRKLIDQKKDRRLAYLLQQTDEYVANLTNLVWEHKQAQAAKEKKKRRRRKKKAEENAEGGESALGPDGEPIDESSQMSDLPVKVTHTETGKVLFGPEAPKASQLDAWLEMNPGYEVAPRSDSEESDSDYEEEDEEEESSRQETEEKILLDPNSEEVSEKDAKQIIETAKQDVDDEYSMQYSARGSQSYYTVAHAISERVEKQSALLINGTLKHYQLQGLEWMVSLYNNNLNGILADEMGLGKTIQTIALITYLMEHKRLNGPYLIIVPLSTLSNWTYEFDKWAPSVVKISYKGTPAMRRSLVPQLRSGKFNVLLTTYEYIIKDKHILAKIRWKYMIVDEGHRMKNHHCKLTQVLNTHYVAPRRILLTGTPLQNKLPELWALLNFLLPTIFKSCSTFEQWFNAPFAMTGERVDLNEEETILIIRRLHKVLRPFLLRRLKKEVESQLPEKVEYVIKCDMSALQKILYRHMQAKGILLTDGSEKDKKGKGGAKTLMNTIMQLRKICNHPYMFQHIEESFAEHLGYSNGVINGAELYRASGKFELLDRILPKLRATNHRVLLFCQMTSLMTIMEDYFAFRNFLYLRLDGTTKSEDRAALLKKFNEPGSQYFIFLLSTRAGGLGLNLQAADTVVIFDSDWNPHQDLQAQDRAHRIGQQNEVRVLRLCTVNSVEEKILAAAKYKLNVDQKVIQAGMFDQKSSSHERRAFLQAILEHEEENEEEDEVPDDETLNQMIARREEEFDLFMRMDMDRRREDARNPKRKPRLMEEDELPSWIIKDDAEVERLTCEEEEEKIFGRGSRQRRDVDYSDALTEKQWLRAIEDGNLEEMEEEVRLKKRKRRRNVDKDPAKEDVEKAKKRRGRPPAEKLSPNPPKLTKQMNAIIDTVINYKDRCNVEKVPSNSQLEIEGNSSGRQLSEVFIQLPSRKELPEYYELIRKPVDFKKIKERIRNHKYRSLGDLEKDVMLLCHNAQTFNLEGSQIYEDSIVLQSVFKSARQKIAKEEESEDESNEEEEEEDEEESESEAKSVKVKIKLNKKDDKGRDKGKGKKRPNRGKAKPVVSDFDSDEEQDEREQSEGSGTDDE
T1 sequence (P51532 whole entry): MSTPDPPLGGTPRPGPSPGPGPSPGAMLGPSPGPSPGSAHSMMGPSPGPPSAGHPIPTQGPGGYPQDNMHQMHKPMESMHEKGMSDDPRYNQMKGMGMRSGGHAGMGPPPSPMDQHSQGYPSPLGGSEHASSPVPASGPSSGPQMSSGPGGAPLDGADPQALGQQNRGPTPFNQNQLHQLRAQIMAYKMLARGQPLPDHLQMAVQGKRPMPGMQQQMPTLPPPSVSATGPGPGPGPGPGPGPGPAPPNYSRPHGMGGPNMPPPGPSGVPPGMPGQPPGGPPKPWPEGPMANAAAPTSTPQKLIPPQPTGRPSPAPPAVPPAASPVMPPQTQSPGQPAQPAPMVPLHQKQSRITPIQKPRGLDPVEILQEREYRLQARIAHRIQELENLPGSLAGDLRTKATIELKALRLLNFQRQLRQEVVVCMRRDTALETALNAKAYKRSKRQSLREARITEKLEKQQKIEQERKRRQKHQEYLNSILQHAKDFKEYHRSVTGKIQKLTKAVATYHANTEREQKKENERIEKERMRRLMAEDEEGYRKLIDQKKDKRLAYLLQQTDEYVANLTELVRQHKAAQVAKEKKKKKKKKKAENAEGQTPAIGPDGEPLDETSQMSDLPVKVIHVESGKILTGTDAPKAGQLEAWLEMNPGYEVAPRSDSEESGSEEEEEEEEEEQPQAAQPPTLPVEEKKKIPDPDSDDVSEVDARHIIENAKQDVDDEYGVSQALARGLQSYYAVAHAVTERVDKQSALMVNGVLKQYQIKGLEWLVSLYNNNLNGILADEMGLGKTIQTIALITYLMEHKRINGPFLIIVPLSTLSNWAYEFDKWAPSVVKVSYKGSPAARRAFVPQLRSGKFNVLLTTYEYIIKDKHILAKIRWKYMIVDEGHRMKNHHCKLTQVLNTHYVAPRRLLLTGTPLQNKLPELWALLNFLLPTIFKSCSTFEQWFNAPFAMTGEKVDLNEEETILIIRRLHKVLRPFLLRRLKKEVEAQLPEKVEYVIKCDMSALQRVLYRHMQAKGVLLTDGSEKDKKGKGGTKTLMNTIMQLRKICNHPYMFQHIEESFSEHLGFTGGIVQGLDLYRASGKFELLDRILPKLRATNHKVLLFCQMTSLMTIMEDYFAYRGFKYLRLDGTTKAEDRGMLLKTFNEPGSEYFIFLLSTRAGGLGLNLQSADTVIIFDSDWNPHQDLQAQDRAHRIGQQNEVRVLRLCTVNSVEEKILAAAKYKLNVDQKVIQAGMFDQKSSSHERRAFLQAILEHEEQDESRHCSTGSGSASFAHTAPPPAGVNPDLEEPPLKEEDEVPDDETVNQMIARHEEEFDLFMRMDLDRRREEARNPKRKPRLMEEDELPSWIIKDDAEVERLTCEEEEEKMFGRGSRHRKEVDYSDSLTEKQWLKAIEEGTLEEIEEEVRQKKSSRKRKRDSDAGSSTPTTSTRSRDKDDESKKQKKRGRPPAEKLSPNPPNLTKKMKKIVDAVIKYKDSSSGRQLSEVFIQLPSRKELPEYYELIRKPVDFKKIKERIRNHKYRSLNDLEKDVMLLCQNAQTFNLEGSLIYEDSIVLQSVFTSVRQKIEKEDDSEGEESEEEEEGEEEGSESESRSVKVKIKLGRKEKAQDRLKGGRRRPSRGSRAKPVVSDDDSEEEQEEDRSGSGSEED

SMILES	Dmax [1] [%]	Dmax [2] [%]	DC50 [1] [nM]	DC50 [2] [nM]
Cc1ncsc1-c1ccc(CNC(=O)[C@@H]2C[C@@H](O)CN2C(=O)[C@@H](NC(=O)CCCCN2CCC(c3cnc(N4C5CCC4CN(c4cc(-c6ccccc6O)nnc4N)C5)nc3)CC2)C(C)(C)C)cc1 [I-383]	< 50	> 90	> 1000	> 1000
Cc1ncsc1-c1ccc(CNC(=O)[C@@H]2C[C@@H](O)CN2C(=O)[C@@H](NC(=O)C2CCN(Cc3cnc(N4C5CCC4CN(c4cc(-c6ccccc6O)nnc4N)C5)nc3)CC2)C(C)(C)C)cc1 [I-384]	–	–	100 to 500	< 100
Cc1ncsc1-c1ccc(CNC(=O)[C@@H]2C[C@@H](O)CN2C(=O)[C@@H](NC(=O)C2CN(Cc3cnc(N4C5CCC4CN(c4cc(-c6ccccc6O)nnc4N)C5)nc3)C2)C(C)(C)C)cc1 [I-385]	50 to 70	> 90	501 to 1000	< 100
Cc1ncsc1-c1ccc(CNC(=O)[C@@H]2C[C@@H](O)CN2C(=O)[C@@H](NC(=O)[C@@H]2CCN(Cc3cnc(N4C5CCC4CN(c4cc(-c6ccccc6O)nnc4N)C5)nc3)C2)C(C)(C)C)cc1 [I-386, (2S,4R)-1-((2S)-2-((3R)-1-((2-(3-(3-amino-6-(2-hydroxyphenyl)pyridazin-4-yl)-3,8-diazabicyclo[3.2.1]octan-8-yl)pyrimidin-5-yl)methyl)pyrrolidine-3-carboxamido)-3,3-dimethylbutanoyl)-4-hydroxy-N-(4-(4-methylthiazol-5-yl)benzyl)pyrrolidine-2-carboxamide]	50 to 70	> 90	501 to 1000	100 to 500
Cc1ncsc1-c1ccc(CNC(=O)[C@@H]2C[C@@H](O)CN2C(=O)[C@@H](NC(=O)[C@H]2CCN(Cc3cnc(N4C5CCC4CN(c4cc(-c6ccccc6O)nnc4N)C5)nc3)C2)C(C)(C)C)cc1 [I-387]	< 50	> 90	> 1000	501 to 1000
Cc1ncsc1-c1ccc(CNC(=O)[C@@H]2C[C@@H](O)CN2C(=O)C(N(C)C(=O)C[C@H]2CC[C@H](N3CCC(c4cnc(N5C6CCC5CN(c5cc(-c7ccccc7O)nnc5N)C6)nc4)CC3)CC2)C(C)(C)C)cc1 (stereo partly shown) [I-388]	> 90	70 to 90	100 to 500	< 100
Cc1ncsc1-c1ccc(CNC(=O)[C@@H]2C[C@@H](O)CN2C(=O)[C@@H](NC(=O)[C@H](C)N2CCC(c3cnc(N4C5CCC4CN(c4cc(-c6ccccc6O)nnc4N)C5)nc3)CC2)C(C)(C)C)cc1 [I-481]	< 50	> 90	> 1000	> 1000
Cc1ncsc1-c1ccc(CNC(=O)[C@@H]2C[C@@H](O)CN2C(=O)[C@@H](NC(=O)[C@@H](C)N2CCC(c3cnc(N4C5CCC4CN(c4cc(-c6ccccc6O)nnc4N)C5)nc3)CC2)C(C)(C)C)cc1 [I-482]	70 to 90	> 90	501 to 1000	> 1000
Cc1ncsc1-c1ccc(CNC(=O)[C@@H]2C[C@@H](N)CN2C(=O)[C@@H](NC(=O)CCCNCc2ccc(C#Cc3cc(NC(=O)Nc4cc(F)ncc4CO)ccn3)cc2)C(C)(C)C)cc1 [I-492]	< 50	< 50	> 1000	> 1000
Cc1ncsc1-c1ccc(CNC(=O)[C@@H]2C[C@@H](O)CN2C(=O)[C@@H](NC(=O)CCN(C)CC#Cc2cnc(N3C4CCC3CN(c3cc(-c5ccccc5O)nnc3N)C4)nc2)C(C)(C)C)cc1 [I-496]	70 to 90	> 90	501 to 1000	< 100
Cc1ncsc1-c1ccc(CNC(=O)[C@@H]2C[C@@H](O)CN2C(=O)[C@@H](NC(=O)CC2CCC(c3cnc(N4C5CCC4CN(c4cc(-c6ccccc6O)nnc4N)C5)nc3)CC2)C(C)(C)C)cc1 (stereo partly shown) [I-502]	> 90	> 90	< 100	< 100
Cc1ncsc1-c1ccc(CNC(=O)[C@@H]2C[C@@H](O)CN2C(=O)[C@@H](NC(=O)CC2CCC(N3CCC(c4cnc(N5C6CCC5CN(c5cc(-c7ccccc7O)nnc5N)C6)nc4)CC3)CC2)C(C)(C)C)cc1 (stereo partly shown) [I-511]	> 90	> 90	100 to 500	< 100
Cc1ncsc1-c1ccc(CNC(=O)[C@@H]2C[C@@H](O)CN2C(=O)[C@@H](NC(=O)CC2CC(N3CCC(c4cnc(N5C6CCC5CN(c5cc(-c7ccccc7O)nnc5N)C6)nc4)CC3)C2)C(C)(C)C)cc1 (stereo partly shown) [I-512]	70 to 90	< 50	100 to 500	> 1000
Cc1ncsc1-c1ccc(CNC(=O)[C@@H]2C[C@@H](O)CN2C(=O)[C@@H](NC(=O)Cc2ccc(N3CCC(c4cnc(N5C6CCC5CN(c5cc(-c7ccccc7O)nnc5N)C6)nc4)CC3)cc2)C(C)(C)C)cc1 [I-513]	70 to 90	70 to 90	501 to 1000	100 to 500
Cc1ncsc1-c1ccc(CNC(=O)[C@@H]2C[C@@H](O)CN2C(=O)[C@@H](NC(=O)C2(F)CC2)C2CCC(N(C)CCCc3cnc(N4C5CCC4CN(c4cc(-c6ccccc6O)nnc4N)C5)nc3)CC2)cc1 (stereo partly shown) [I-518]	< 50	50 to 70	> 1000	100 to 500

The next lines start with results.

Dmax [1] [%]	Dmax [2] [%]	SMILES	DC50 [1] [nM]	DC50 [2] [nM]
> 90	> 90	CC(C)(C)[C@H](NC(=O)C1(F)CC1)C(=O)N1C[C@H](O)C[C@H]1C(=O)NCc1ccc(-c2scnc2-c2ccc3cn[nH]c3c2)cc1OCCc1ccc(CN2CCN(c3cc(-c4ccccc4O)nnc3N)CC2)cc1 [I-447, (2S,4R)—N-(4-(4-(1H-indazol-6-yl)thiazol-5-yl)-2-(4-((4-(3-amino-6-(2-hydroxyphenyl)pyridazin-4-yl)piperazin-1-yl)methyl)phenethoxy)benzyl)-1-((S)-2-(1-fluorocyclopropanecarboxamido)-3,3-dimethylbutanoyl)-4-hydroxypyrrolidine-2-carboxamide]	100 to 500	< 100
< 50	< 50	Cc1ncsc1-c1ccc(CNC(=O)[C@@H]2C[C@@H](O)CN2C(=O)[C@@H](NC(=O)CCCN2CCCC(n3cc(-c4cc(-c5ccccc5O)nnc4N)cn3)C2)C(C)(C)C)cc1 (stereo partly shown) [I-454]	> 1000	> 1000
< 50	70 to 90	Cc1ncsc1-c1ccc(CNC(=O)[C@@H]2C[C@@H](O)CN2C(=O)[C@@H](NC(=O)CCN2CCN(Cc3ccc(-c4cc(-c5ccccc5O)nnc4N)cc3)CC2)C(C)(C)C)cc1 [I-474]	> 1000	–
< 50	< 50	Cc1ncsc1-c1ccc(CNC(=O)[C@@H]2C[C@@H](O)CN2C(=O)[C@@H](NC(=O)CCN2CCC[C@H](Cn3cc(-c4cc(-c5ccccc5O)nnc4N)cn3)C2)C(C)(C)C)cc1 [I-478]	> 1000	> 1000
< 50	< 50	Cc1ncsc1-c1ccc(CNC(=O)[C@@H]2C[C@@H](O)CN2C(=O)[C@@H](NC(=O)CCCCN2CCC[C@H](Cn3cc(-c4cc(-c5ccccc5O)nnc4N)cn3)C2)C(C)(C)C)cc1 [I-480]	> 1000	> 1000
70 to 90	< 50	Cc1ncsc1-c1ccc(CNC(=O)[C@@H]2C[C@@H](O)CN2C(=O)[C@@H](NC(=O)C2CCC(N3CCC(n4cc(-c5cc(-c6ccccc6O)nnc5N)cn4)CC3)CC2)C(C)(C)C)cc1 (stereo partly shown) [I-483]	100 to 500	> 1000
> 90	> 90	Cc1ncsc1-c1ccc(CNC(=O)[C@@H]2C[C@@H](O)CN2C(=O)[C@@H](NC(=O)C2CCC(CCCCCN3CCC(Cn4cc(-c5cc(-c6ccccc6O)nnc5N)cn4)CC3)CC2)C(C)(C)C)cc1 (stereo partly shown) [I-504]	100 to 500	100 to 500
> 90	> 90	Cc1ncsc1-c1ccc(CNC(=O)[C@@H]2C[C@@H](O)CN2C(=O)[C@@H](NC(=O)c2ccc(CCCCCN3CCC(Cn4cc(-c5cc(-c6ccccc6O)nnc5N)cn4)CC3)cc2)C(C)(C)C)cc1 [I-505]	100 to 500	100 to 500
> 90	> 90	Cc1ncsc1-c1ccc(CNC(=O)[C@@H]2C[C@@H](O)CN2C(=O)[C@@H](NC(=O)c2ccc(C#CCCCN3CCC(Cn4cc(-c5cc(-c6ccccc6O)nnc5N)cn4)CC3)cc2)C(C)(C)C)cc1 [I-506]	100 to 500	< 100
> 90	> 90	Cc1ncsc1-c1ccc(CNC(=O)[C@@H]2C[C@@H](O)CN2C(=O)[C@@H](NC(=O)c2ccc(-c3ccc(CN4CCC(Cn5cc(-c6cc(-c7ccccc7O)nnc6N)cn5)CC4)cc3)cc2)C(C)(C)C)cc1 [I-507]	< 100	< 100
< 50	< 50	Cc1ncsc1-c1ccc(CNC(=O)[C@@H]2C[C@@H](O)CN2C(=O)[C@@H](NC(=O)Cc2ccc(-c3ccc(N4CCC(Cn5cc(-c6cc(-c7ccccc7O)nnc6N)cn5)CC4)cc3)cc2)C(C)(C)C)cc1 [I-508]	> 1000	> 1000
< 50	> 90	Cc1ncsc1-c1ccc(CNC(=O)[C@@H]2C[C@@H](O)CN2C(=O)[C@@H](NC(=O)c2ccc(N3CCC(n4cc(-c5cc(-c6ccccc6O)nnc5N)cn4)CC3)cc2)C(C)(C)C)cc1 [I-515]	> 1000	< 100
< 50	< 50	Cc1ncsc1-c1ccc(CNC(=O)[C@@H]2C[C@@H](O)CN2C(=O)[C@@H](NC(=O)Cc2ccc(N3CCC(n4cc(-c5cc(-c6ccccc6O)nnc5N)cn4)CC3)cc2)C(C)(C)C)cc1 [I-516]	> 1000	> 1000
